This test addresses T1, Rat 5HT7 Receptors (Rattus norvegicus, UniProt P32305).
T1 construct: expressed in transfected cells; host or cells: HEK-293
Description: 3H-5-Carboxamidotryptamine (3H-5-CT) binding to rat 5HT7 receptors expressed in HEK-293 cells. The method, then: The affinities of the active compounds for 5HT7 receptors can be determined using standard radioligand binding assays as described in the literature. The 5HT7 affinity can be measured using the following procedure.
^3H-5-Carboxamidotryptamine (^3H-5-CT) Binding to Rat 5HT7 Receptors Expressed in HEK-293 Cells: […]
Nonspecific binding is determined using 1 uM 5-HT creatinine sulfate. […] Radioactivity is quantified by liquid scintillation counting using a BetaPlate counter (LKB).
The percent inhibition of specific binding is calculated for each concentration of test compound. […] Ki values are calculated according to Cheng & Prusoff: Ki=IC50/(1+(L/Kd)), where L is the concentration of the radioligand used in the experiment and the Kd value is the dissociation constant for the radioligand determined in separate saturation experiments. […]

Molecules are shown by their SMILES. Read-outs that look alike come from different tables or passages of the source.

T1 sequence (P32305 whole entry): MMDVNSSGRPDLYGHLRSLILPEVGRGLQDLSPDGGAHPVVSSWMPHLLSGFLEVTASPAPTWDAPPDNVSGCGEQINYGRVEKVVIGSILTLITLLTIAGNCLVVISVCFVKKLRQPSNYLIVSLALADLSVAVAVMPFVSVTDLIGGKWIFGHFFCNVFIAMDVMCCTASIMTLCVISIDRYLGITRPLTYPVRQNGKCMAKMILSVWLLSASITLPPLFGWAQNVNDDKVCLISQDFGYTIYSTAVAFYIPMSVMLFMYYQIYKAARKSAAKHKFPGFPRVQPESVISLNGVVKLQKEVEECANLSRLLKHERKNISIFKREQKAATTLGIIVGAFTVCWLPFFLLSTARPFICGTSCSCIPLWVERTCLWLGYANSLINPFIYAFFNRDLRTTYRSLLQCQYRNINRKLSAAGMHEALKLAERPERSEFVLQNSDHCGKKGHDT

For `CCc1cnc2cc(C3CCCNC3)ccc2c1` (racemic) [Example 10, 3-Ethyl-7-Piperidin-3-yl-Quinoline], under “3H-5-CT 0.4 nM radioligand, HEK-293 cell membranes expressing rat 5HT7, Cheng & Prusoff, read-out: Ki”, the Ki is roughly 500 nM.
Turning to `Cc1cnc2c(C3CCCNC3)cccc2c1` (racemic) [Example 8, 3-Methyl-8-Piperidin-3-yl-Quinoline], the Ki was roughly 7.6 nM.

By Ki is commonly meant the dissociation constant of the complex between target and ligand, obtained from inhibition or displacement.
